Entries after “also recorded” stand apart in the source; their conditions may differ. Read-outs that look alike come from different tables or passages of the source.
Tests used:
[1] = tested on: Staphylococcus epidermidis; assay: Anti-microbial performance of chelators: growth inhibition in semi-synthetic medium by optical density; format: cell-based; settings: for "micro-molar active" criterion (significant inhibition of growth, at least 30%, at 3×10^−6 mol.dm^−3 or less): S. epidermidis; for Inhibition of growth (%): chelator 3×10^−6 mol.dm^−3, 16 hours at 37° C., optical density at 600 nm vs control medium
Experimental: An axillary isolate of Staphylococcus epidermidis was grown overnight in 100 ml of tryptone soy broth (TSB, Oxoid Ltd). 10 ml of this culture was taken and subjected to centrifugation. The separated cells were re-suspended in 10 ml of phosphate buffered saline and the centrifugation procedure repeated. The washed cells were re-suspended in 10 ml of phosphate buffered saline to give the inoculum. 100 μl of the inoculum was added to 100 ml of semi-synthetic medium (SSM) containing (NH4)2SO4 (0.066 g), MgSO4.7H2O (0.012 g), KCl (0.1 g), KH2PO4 (0.27 g), Na2HPO4 (1.43 g), thiamin (0.1 mg), biotin (0.05 mg), Peptone P (0.05 g), and glucose (2.0 mmole) which had been previously sterilised by autoclaving at 121° C. for 20 minutes. The pH of the SSM was adjusted to 6.7 with HCl after sterilisation, prior to addition of the inoculum. This control medium was utilised in all of the in vitro inhibition studies. The chelator-containing test media were prepared in a similar manner, the chelator being introduced at a concentration of 3×10^−6 mol.dm^−3 before the pH adjustment with HCl.
100 μl of the S. epidermidis inoculum was introduced into the control medium and into test media containing the chelators indicated in Table 2. The cultures were inoculated at 37° C. (with agitation at 200 rpm) for 16 hours, and the optical density of the cultures measured at 600 nm to determine the extent of bacterial growth. By comparison of the optical density of the culture in the presence of chelating agent, to that of the control, the percentage inhibition of growth was established. (Optical density measurements were made on 1 in 4 dilutions of the cultures with 0.9% (w/v) saline, using 1 cm path length cuvettes, on a Pharmacia Biotech Ultrospec 200 Spectrophotometer.)

[2] = tested on: relevant micro-organism; settings: cited from earlier work

Row | Structure (SMILES) | "micro-molar active" criterion (significant inhibition of growth, at least 30%, at 3×10^−6 mol.dm^−3 or less) [1] | Inhibition of growth (%) [1] | MIC ([2]; stated by contrast, no source given) | MIC ([2]; literature values)
1 | O=C(O)CN(CC(=O)O)[C@@H]1CCCC[C@H]1N(CC(=O)O)CC(=O)O (relative stereo) [CDTA, trans-1,2-diaminocyclohexane-N,N,N′,N′-tetraacetic acid] | exclude; also recorded: fail this criterion | 12.3% |  | 
2 | O=C(O)CN(CCN(CC(=O)O)CC(=O)O)CCN(CC(=O)O)CC(=O)O [DTPA, diethylenetriaminepentaacetic acid] | capable of achieving significant inhibition; also recorded: meet the criterion | 56.5% |  | 
3 | O=C(O)CN(CCN(CC(=O)O)CC(=O)O)CC(=O)O [EDTA, ethylenediaminetetraacetic acid] | exclude; also recorded: fail this criterion | 0% |  | 
4 | O=C(O)CN(CCN(CCN(CC(=O)O)CC(=O)O)CC(=O)O)CCN(CC(=O)O)CC(=O)O [TTHA, triethylenetetraaminehexaacetic acid] | capable of achieving significant inhibition; also recorded: meet the criterion | 56.3% |  | 
5 | CCO [ethanol] |  |  | greater than 1 mg.ml^−1 | 
6 | CC(C)=CCCC(C)=CCCC(C)=CCO [farnesol, 3,7,11-trimethyldodeca-2,6,10-trienol] |  |  |  | ca. 25 μg.ml^−1
7 | Oc1cc(Cl)ccc1Oc1ccc(Cl)cc1Cl [triclosan, 2′,4,4′-trichloro,2-hydroxy-diphenyl ether] |  |  |  | 0.01 to 10 µg/mL

Reference: patent US6893630B2, “Anti-microbial antiperspirant products” (Unilever Home & Personal Care USA, division of Conopco, Inc., priority 2000, dated 2005)
